The first test concerns E. coli MC4100relA^+. The experiment in a line: E. coli mazEF-mediated cell death in the presence of synthesized wild type and mutated EDF. The test is classed as cell-based. The conditions noted are these: 1 μg/ml of peptide; rifampicin 10 μg/ml, 10 minutes; diluted culture 3×10^4. The method, then: (§1) E. coli mazEF-mediated cell death in the presence of synthesized wild type (WT) and mutated EDF. E. coli MC4100relA^+t(WT) and MC4100relA^+ΔmazEF (ΔmazEF) were grown for 12 hours in M9 medium with shaking (160 rpm). Then, cells were diluted 1:100 in M9 medium and were grown with shaking (160 rpm) at 37° C. to a mid-logarithmic phase (OD600=0.6). Duplicate samples were removed from the cultures at a density of 2.5×10^8 (Dense), diluted in pre-heated M9 medium to the density of 3×10^4 (M9) or diluted in pre-heated M9 applied with 1 μg/ml of one of the synthesized EDFs (SEQ ID NOs: 1-6). The samples were incubated for 10 minutes at 37° C. without shaking. Then rifampicin (10 μg/ml) was added and the cells were incubated for 10 minutes without shaking. The cells were centrifuged in 14000 rpm for 5 minutes and washed in pre-heated saline. Then, the cells were diluted, plated on LB plates and incubated at 37° C. for 12 hours. Cell killing was calculated by comparing the number of the colony-forming ability of cells treated by stressful conditions to those of the cells that were not exposed to the treatment.
Regarding “NNWGN: Mutated EDF pentapeptide, glycine in position 4 (Chemically synthesized mutant EDF derivative)”, the “% Cell killing following mazEF induction with rifampicin” value is 72%.
Turning to “NNGNN: Mutated EDF pentapeptide, glycine in position 3 (Chemically synthesized mutant EDF derivative)”, the “% Cell killing following mazEF induction with rifampicin” value was 41%.
The same measure, in the same setting: with “NNWNG: Mutated EDF pentapeptide, glycine in position 5 (Chemically synthesized modified EDF derivative)” the figure was 19%; with “NGWNN: Mutated EDF pentapeptide, glycine in position 2 (Chemically synthesized mutant EDF derivative)”, 51%.
On the same count and under the same terms, with “GNWNN: Mutated EDF pentapeptide, glycine in position 1 (Chemically synthesized mutant EDF derivative)” the figure was 9%.

The next test relates to E. Coli NC4100relA^+. The test is described as follows: Ability of mutant EDF molecules to inhibit wild type EDF activity. It counts as cell-based. Particulars: constant amount (50 ng/ml) of mutated EDF, various concentrations of WT EDF. As to the method:
FIG. 15 is a graph illustrating the ability of mutant EDF molecules to inhibit wild type EDF activity. The […] peptides analyzed include NNWNN (SEQ ID NO: 1); GNWNN (SEQ ID NO: 2); NGWNN (SEQ ID NO: 3); NNGNN (SEQ ID NO: 4); NNWGN (SEQ ID NO: 5); and NNWNG (SEQ ID NO: 6).
Ability of mutant EDF molecules to inhibit wild type EDF activity: Various concentration of chemically synthesized WT EDF (SEQ ID NO: 1) were added to diluted cultures of E. Coli NC4100relA^+ containing a constant amount (50 ng/ml) of each of the mutated EDF described in Table 6. The Experiment was carried out as described herein above.
As for “NNWNG: Mutated EDF pentapeptide, glycine in position 5 (Chemically synthesized modified EDF derivative)”, the “inhibition of wild type EDF activity” value is given as “capable of antagonizing”.
As to “GNWNN: Mutated EDF pentapeptide, glycine in position 1 (Chemically synthesized mutant EDF derivative)”, the “inhibition of wild type EDF activity” value was “capable of antagonizing”.

The subject of the next test is E. Coli MC41relA^+. The experiment in a line: EDF activity of modified derivatives (size and external Asn residues). The test is classed as cell-based. Particulars: various concentrations added to diluted cultures; incubated with rifampicin. As to the method:
The […] peptides analyzed include NNWNN (SEQ ID NO: 1); GNWNN (SEQ ID NO: 2); NGWNN (SEQ ID NO: 3); NNGNN (SEQ ID NO: 4); NNWGN (SEQ ID NO: 5); and NNWNG (SEQ ID NO: 6). […] Chemically synthesized EDF (SEQ ID NO: 1) or its modified derivatives were added at various concentrations to diluted cultures of E. Coli MC41relA^+. No EDF was added to a control culture. […] Samples were incubated with rifampicin as described in Example 1.
as §1, with “Duplicate samples were removed from the cultures at a density of 2.5×10^8 (Dense), diluted in pre-heated M9 medium to the density of 3×10^4 (M9) or diluted in pre-heated M9 applied with 1 μg/ml of one of the synthesized EDFs (SEQ ID NOs: 1-6).” left out
Consider “QNWNN: EDF pentapeptide with Asn replaced by Gln at the first position (Chemically synthesized modified EDF derivative)”, for which the EDF activity entry is given as “only a partial reduction in EDF activity”.
Consider “NNWNQ: EDF pentapeptide with Asn replaced by Gln at the last position (Chemically synthesized modified EDF derivative)”, for which the EDF activity result is listed as “only a partial reduction in EDF activity”.
Same read-out and setting: with “NNNWNNN (Chemically synthesized modified EDF derivative) [heptapeptide derivative of EDF]” the entry was “partial activity”.

The values are drawn from US9012152B2, “Anti-bacterial peptides and methods of treating diseases using same” (Yissum Research Development Company of the Hebrew …, priority 2007, dated 2015).
